Patent publication US20130196320A1, “METHOD FOR IMPROVING CLEAVAGE OF DNA BY ENDONUCLEASE SENSITIVE TO METHYLATION” (CELLECTIS, priority 2010, published 2013)

Columns and labels:
[1] = tested on: ADCY9 target CpG in 293H cells; assay: DNA methylation status of ADCY9 target by bisulfite technique; type: cell-based, human; conditions: 0.2 and 1 μM; 100% methylated without treatment
Experimental: (§1) The human 293H cells (ATCC) were plated at a density of 1.2×10^6 cells per 10 cm dish in complete medium (DMEM supplemented with 2 mM L-glutamine, penicillin (100 IU/ml), streptomycin (100 μg/ml), amphotericin B (Fongizone: 0.25 μg/ml, Invitrogen-Life Science) and 10% FBS). The cells were pre-treated with 5-aza-deoxycytidine at 0.2 μM or 1 μM, 48 hours before transfection and the treatment was maintained 48 hours post-transfection. The medium was changed every day. The cells were transfected with 5 μg of DNA plasmids encoding meganuclease using Lipofectamine 2000 transfection reagent (Invitrogen) according to the manufacturer's protocol.
The procedure as described in Example 4 was followed to assess the level of DNA methylation, except that we used specific primers to amplify the sequence surrounded the ADCY9 meganuclease recognition site. Primers ADCY9_F1 […] (SEQ ID NO: 43) and ADCY9_R1 […] (SEQ ID NO: 44) were used. PCR products were sequenced directly with primer ADCY9_F2 […] (SEQ ID NO: 45).

[2] = tested on: RAG target in human RAG1 gene, 293H cells; assay: Meganuclease-induced mutagenesis assay at RAG recognition site; type: cell-based; conditions: Empty vector, 1 μM 5-aza-2′-deoxycytidine, RAG locus
Experimental: as §1, with “transfected with 3 μg of” for “transfected with 5 μg of”, “encoding meganuclease for RAG or 2.5 μg of each monomer CAPNS1 using Lipofectamine” for “encoding meganuclease using Lipofectamine”
The efficiency of the meganuclease to promote mutagenesis at its endogenous recognition site was evaluated by sequencing the DNA surrounding the meganuclease cleavage site. Two days post-transfection, genomic DNA was extracted. 200 ng of genomic DNA were used to amplify (PCR amplification) the endogenous locus surrounding the meganuclease cleavage site. PCR amplification is performed to obtain a fragment flanked by specific adaptor sequences [adaptor A: 5′-[…]-NNNN-3′(SEQ ID NO: 46) and adaptor B, 5′-[…]-3′ (SEQ ID NO: 47)] provided by the company offering sequencing service (GATC Biotech AG, Germany) on the 454 sequencing system (454 Life Sciences). The primers sequences used for PCR amplification were:
RAG_F1: 5′-[…]-NNNN-[…] (SEQ ID NO: 57) and
RAG_R1: 5′-[…]-[…]-3′ (SEQ ID NO: 58) and CAPNS1_J3: 5′-[…]-NNNN-[…] (SEQ ID NO: 59) and CAPNS1_R3: 5′-[…]-[…]-3′ (SEQ ID NO: 60). Sequences specific to the locus are underlined. The sequence NNNN in primer F1 is a Barcode sequence (Tag) needed to link the sequence with a PCR product. The percentage of PCR fragments carrying insertion or deletion at the meganuclease cleavage site is related to the mutagenesis induced by the meganuclease through NHEJ pathway in a cell population, and therefore correlates with the meganuclease activity at its endogenous recognition site. 5000 to 10000 sequences were analyzed per conditions.

Nc1ncn([C@H]2C[C@H](O)[C@@H](CO)O2)c(=O)n1 [5-aza-2′deoxycytidine, reference compound]
amount of methylated CpG within ADCY9 target [1]: 40% | mutagenesis, PCR fragments carrying a mutation [2]: 0.04% | mutagenesis, PCR fragments carrying a mutation ([2]; listed as 5-aza-2′-deoxycytidine): 0.04 ± 0.05%
